IC50 data for 17 compounds are collected here from patent publication US12371454B2, “Cyclic peptide compound having Kras inhibitory action” (priority 2019, dated 2025).

Starred links: 1 amine or outer side, 2 acyl side, 3 side chain; linkers in the order of their positions; H or OH if unused. Positions of bridges follow the written chain, without caps; N, C: chain ends. Non-standard residues stand in square brackets, D forms with d. Residues, ends and D or L forms follow the SMILES beside them. *: point of attachment. hPhe(3-Cl-4-CF3) = N[C@@H](CCc1ccc(C(F)(F)F)c(Cl)c1)C(=O)O; hPhe(3-F,4-CF3) = N[C@@H](CCc1ccc(C(F)(F)F)c(F)c1)C(=O)O; X60 = CC(C)Oc1cc(CC[C@H](N[*:1])C(=O)[*:2])cc(Cl)c1Cl; NMePhe(4-CF3) = CN[C@@H](Cc1ccc(C(F)(F)F)cc1)C(=O)O; 3Oxa8azabicyclo(3.2.1)octane = C1CC2COCC1N2*; NMePhe(4-Me) = CN[C@@H](Cc1ccc(C)cc1)C(=O)O; NMeGly(cPent) = CN[C@H](C(=O)O)C1CCCC1; oXylylene = c1ccc(C[*:2])c(C[*:1])c1; NMeCha = CN[C@@H](CC1CCCCC1)C(=O)O; cisHyp = O=C(O)[C@@H]1C[C@H](O)CN1; Hyp = O=C(O)[C@@H]1C[C@@H](O)CN1; NEtLeu = CCN[C@@H](CC(C)C)C(=O)O; NMeAhp(2) = CCCCC[C@H](NC)C(=O)O; NMeChg = CN[C@H](C(=O)O)C1CCCCC1; NMeI = CC[C@H](C)[C@H](NC)C(=O)O; NMeD = CN[C@@H](CC(=O)O)C(=O)O; NMeL = CN[C@@H](CC(C)C)C(=O)O; NMeNva = CCC[C@H](NC)C(=O)O; NMeV = CN[C@H](C(=O)O)C(C)C; d(β3hA) = C[C@@H](N)CC(=O)O; Morpholide = C1CN(*)CCO1; NMeA = CN[C@@H](C)C(=O)O; Piperidide = C1CCN(*)CC1; Pyrrolidide = C1CCN(*)C1; dNMeA = CN[C@H](C)C(=O)O; Ac5c = NC1(C(=O)O)CCCC1; Aze = O=C(O)[C@@H]1CCN1; Ac4c = NC1(C(=O)O)CCC1; X24 = c1cncc(C*)c1; X27 = Clc1ccccc1C*; NEtG = CCNCC(=O)O; X36 = c1cc(C*)cs1; Sar = CNCC(=O)O Some results are limits rather than exact numbers.

In the experiment the test system is Human pancreatic cancer cell line AsPC-1. Kind of experiment: Measurement of AsPC-1 cell growth inhibition (AsPC-1 CGI). It counts as cell-based. Particulars: 96 h. The procedure, abridged:
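AsPC-1 cells in 15% FBS RPMI-1640 were exposed to test compound for 96 hours at 37° C, with CellTiter-Glo as endpoint.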
The compound `CC[C@H](C)[C@@H]1NC(=O)[C@H](CC(C)C)N(C)C(=O)C[C@@H](C(=O)N2CCOCC2)N(C)C(=O)[C@H](C(C)C)N(C)C(=O)C2(CCCC2)NC(=O)[C@@H]2CCCN2C(=O)[C@H](CCc2ccc(C(F)(F)F)c(Cl)c2)NC(=O)CN(C)C(=O)[C@H](CC2CCCCC2)N(C)C(=O)[C@@H]2CCN2C(=O)CN(C)C1=O` [Compound 1758] ([NMeL]I[Sar][Aze][NMeCha][Sar][hPhe(3-Cl-4-CF3)]P[Ac5c][NMeV][NMeD]-Morpholide; lactam N-11) displayed an IC50 of 100 to 500 nM.
As to `CC[C@H](C)[C@@H]1NC(=O)[C@H](CC(C)C)N(C)C(=O)C[C@@H](C(=O)N2CCCC2)N(C)C(=O)[C@H](C2CCCC2)N(C)C(=O)C2(CCCC2)NC(=O)[C@@H]2CCCN2C(=O)[C@H](CCc2ccc(C(F)(F)F)c(Cl)c2)NC(=O)CN(C)C(=O)[C@H](CC2CCCCC2)N(C)C(=O)[C@@H]2CCN2C(=O)[C@H](C)N(C)C1=O` [Compound 1679] ([NMeL]I[NMeA][Aze][NMeCha][Sar][hPhe(3-Cl-4-CF3)]P[Ac5c][NMeGly(cPent)][NMeD]-Pyrrolidide; lactam N-11), the IC50 lay in the range of 20 to 50 nM.
As for `CC[C@H](C)[C@@H]1NC(=O)[C@H](CC(C)C)N(C)C(=O)C[C@@H](C(=O)N2CCCCC2)N(C)C(=O)[C@H](C(C)C)N(C)C(=O)C2(CCCC2)NC(=O)[C@@H]2CCCN2C(=O)[C@H](CCc2ccc(C(F)(F)F)c(F)c2)NC(=O)CN(C)C(=O)[C@H](CC2CCCCC2)N(C)C(=O)[C@@H]2CCN2C(=O)CN(C)C1=O` [Compound 599] ([NMeL]I[Sar][Aze][NMeCha][Sar][hPhe(3-F,4-CF3)]P[Ac5c][NMeV][NMeD]-Piperidide; lactam N-11), the IC50 lay in the range of 100 to 500 nM.
On to `CCCCC[C@H]1C(=O)N(C)CC(=O)N[C@@H](CCc2ccc(C(F)(F)F)c(Cl)c2)C(=O)N2CCC[C@H]2C(=O)NC2(CCCC2)C(=O)N(C)[C@@H](C(C)C)C(=O)N(C)[C@H](C(=O)N2CCCCC2)CC(=O)N(C)[C@@H](CC(C)C)C(=O)N[C@@H]([C@@H](C)CC)C(=O)N(C)[C@@H](C)C(=O)N2CC[C@H]2C(=O)N1C` [Compound 1854] ([NMeL]I[NMeA][Aze][NMeAhp(2)][Sar][hPhe(3-Cl-4-CF3)]P[Ac5c][NMeV][NMeD]-Piperidide; lactam N-11), for which the IC50 is 100 to 500 nM.
The result for `CC[C@H](C)[C@@H]1NC(=O)[C@H](CC(C)C)N(C)C(=O)C[C@@H](C(=O)N2CCCCC2)N(C)C(=O)[C@H](C2CCCCC2)N(C)C(=O)C2(CCCC2)NC(=O)[C@@H]2C[C@@H](OCc3ccsc3)CN2C(=O)[C@H](CCc2ccc(C(F)(F)F)c(Cl)c2)NC(=O)CN(C)C(=O)[C@H](CC2CCCCC2)N(C)C(=O)CN(C)C(=O)CN(C)C1=O` [Compound 2124] ([NMeL]I[Sar][Sar][NMeCha][Sar][hPhe(3-Cl-4-CF3)][Hyp](X36)[Ac5c][NMeChg][NMeD]-Piperidide; lactam N-11) reads 100 to 500 nM; that for `CC[C@H](C)[C@@H]1NC(=O)[C@H](CC(C)C)N(C)C(=O)C[C@@H](C(=O)N2CCCCC2)N(C)C(=O)[C@H](C2CCCCC2)N(C)C(=O)C2(CCCC2)NC(=O)[C@@H]2C[C@H](OCc3cccnc3)CN2C(=O)[C@H](CCc2ccc(C(F)(F)F)c(Cl)c2)NC(=O)CN(C)C(=O)[C@H](CC2CCCCC2)N(C)C(=O)CN(C)C(=O)CN(C)C1=O` [Compound 2120] ([NMeL]I[Sar][Sar][NMeCha][Sar][hPhe(3-Cl-4-CF3)][cisHyp](X24)[Ac5c][NMeChg][NMeD]-Piperidide; lactam N-11), 100 to 500 nM.
`CC[C@H](C)[C@@H]1NC(=O)[C@H](CC(C)C)N(C)C(=O)C[C@@H](C(=O)N2CCCC2)N(C)C(=O)[C@H]([C@@H](C)CC)N(C)C(=O)C2(CCCC2)NC(=O)[C@@H]2CCCN2C(=O)[C@H](CCc2ccc(C(F)(F)F)c(Cl)c2)NC(=O)CN(CC)C(=O)[C@H](Cc2ccc(C(F)(F)F)cc2)N(C)C(=O)[C@@H]2CCN2C(=O)[C@H](C)N(C)C1=O` [Compound 1159] ([NMeL]I[NMeA][Aze][NMePhe(4-CF3)][NEtG][hPhe(3-Cl-4-CF3)]P[Ac5c][NMeI][NMeD]-Pyrrolidide; lactam N-11) showed an IC50 of 20 to 50 nM.
The compound `CC[C@H](C)[C@@H]1NC(=O)[C@H](CC(C)C)N(C)C(=O)C[C@@H](C(=O)N2CCCCC2)N(C)C(=O)[C@H](CC(C)C)N(C)C(=O)C2(CCCC2)NC(=O)[C@@H]2C[C@H](OCc3ccccc3Cl)CN2C(=O)[C@H](CCc2ccc(C(F)(F)F)c(F)c2)NC(=O)CN(C)C(=O)[C@H](CC2CCCCC2)N(C)C(=O)CN(C)C(=O)CN(C)C1=O` [Compound 2132] ([NMeL]I[Sar][Sar][NMeCha][Sar][hPhe(3-F,4-CF3)][cisHyp](X27)[Ac5c][NMeL][NMeD]-Piperidide; lactam N-11) gave a concentration for half-maximal inhibition (IC50) of more than 500 nM.
The compound `CC[C@H](C)[C@@H]1NC(=O)[C@H](CC(C)C)N(C)C(=O)C[C@@H](C(=O)N2CCCCC2)N(C)C(=O)[C@H](C2CCCCC2)N(C)C(=O)C2(CCCC2)NC(=O)[C@@H]2CCCN2C(=O)[C@H](CCc2ccc(C(F)(F)F)c(Cl)c2)NC(=O)CN(C)C(=O)[C@H](Cc2ccc(C)cc2)N(C)C(=O)[C@@H]2CCN2C(=O)[C@H](C)N(C)C1=O` [Compound 1795] ([NMeL]I[NMeA][Aze][NMePhe(4-Me)][Sar][hPhe(3-Cl-4-CF3)]P[Ac5c][NMeChg][NMeD]-Piperidide; lactam N-11) returned an IC50 of 50 to 100 nM.
In the case of `CC[C@H](C)[C@@H]1NC(=O)[C@H](CC(C)C)N(C)C(=O)C[C@@H](C(=O)N2CCCCC2)N(C)C(=O)[C@H](C(C)C)N(C)C(=O)C2(CCC2)NC(=O)[C@@H]2CCCN2C(=O)[C@H](CCc2ccc(C(F)(F)F)c(Cl)c2)NC(=O)CN(C)C(=O)[C@H](CC2CCCCC2)N(C)C(=O)[C@@H]2CCN2C(=O)[C@H](C)N(C)C1=O` [Compound 1672] ([NMeL]I[NMeA][Aze][NMeCha][Sar][hPhe(3-Cl-4-CF3)]P[Ac4c][NMeV][NMeD]-Piperidide; lactam N-11) it was 100 to 500 nM.
The result for `CC[C@H](C)[C@@H]1NC(=O)[C@H](CC(C)C)N(CC)C(=O)C[C@@H](C(=O)N2CCCC2)N(C)C(=O)[C@H]([C@@H](C)CC)N(C)C(=O)C2(CCCC2)NC(=O)[C@@H]2CCCN2C(=O)[C@H](CCc2ccc(C(F)(F)F)c(Cl)c2)NC(=O)CN(C)C(=O)[C@H](Cc2ccc(C(F)(F)F)cc2)N(C)C(=O)[C@@H]2CCN2C(=O)[C@H](C)NC1=O` [Compound 1146] ([NEtLeu]IA[Aze][NMePhe(4-CF3)][Sar][hPhe(3-Cl-4-CF3)]P[Ac5c][NMeI][NMeD]-Pyrrolidide; lactam N-11) reads 20 to 50 nM; that for `CC[C@H](C)[C@@H]1NC(=O)[C@H](CC(C)C)N(C)C(=O)C[C@@H](C(=O)N2CCCCC2)N(C)C(=O)[C@H](C2CCCCC2)N(C)C(=O)C2(CCCC2)NC(=O)[C@@H]2CCCN2C(=O)[C@H](CCc2ccc(C(F)(F)F)c(Cl)c2)NC(=O)CN(C)C(=O)[C@H](CC2CCCCC2)N(C)C(=O)CN(C)C(=O)CN(C)C1=O` [Compound 558] ([NMeL]I[Sar][Sar][NMeCha][Sar][hPhe(3-Cl-4-CF3)]P[Ac5c][NMeChg][NMeD]-Piperidide; lactam N-11), 20 to 50 nM; that for `CCC[C@H]1C(=O)NC2(CCCC2)C(=O)N(C)[C@@H](C2CCCCC2)C(=O)N(C)[C@H](C(=O)N2CCCCC2)CC(=O)N(C)[C@@H](CC(C)C)C(=O)N[C@@H]([C@@H](C)CC)C(=O)N(C)CC(=O)N(C)CC(=O)N(C)[C@@H](CC2CCCCC2)C(=O)N(C)CC(=O)N[C@@H](CCc2ccc(C(F)(F)F)c(Cl)c2)C(=O)N1C` [Compound 1005] ([NMeL]I[Sar][Sar][NMeCha][Sar][hPhe(3-Cl-4-CF3)][NMeNva][Ac5c][NMeChg][NMeD]-Piperidide; lactam N-11), 100 to 500 nM.
Compound `CC[C@H](C)[C@@H]1NC(=O)[C@H](CC(C)C)N(C)C(=O)C[C@@H](C(=O)N2CCCCC2)N(C)C(=O)[C@H](CC(C)C)N(C)C(=O)C2(CCCC2)NC(=O)[C@@H]2C[C@@H](OCc3ccccc3C)CN2C(=O)[C@H](CCc2ccc(C(F)(F)F)c(F)c2)NC(=O)CN(C)C(=O)[C@H](CC2CCCCC2)N(C)C(=O)CN(C)C(=O)CN(C)C1=O` [Compound 2139] ([NMeL]I[Sar][Sar][NMeCha][Sar][hPhe(3-F,4-CF3)][Hyp](oXylylene)[Ac5c][NMeL][NMeD]-Piperidide; lactam N-11) displayed an IC50 of 100 to 500 nM.
`CC[C@H](C)[C@@H]1NC(=O)[C@H](CC(C)C)N(C)C(=O)C[C@@H](C(=O)N2C3CCC2COC3)N(C)C(=O)[C@H]([C@@H](C)CC)N(C)C(=O)C2(CCCC2)NC(=O)[C@@H]2CCCN2C(=O)[C@H](CCc2ccc(C(F)(F)F)c(Cl)c2)NC(=O)CN(C)C(=O)[C@H](C2CCCC2)N(C)C(=O)[C@@H]2CCN2C(=O)[C@H](C)N(C)C1=O` [Compound 1002] ([NMeL]I[NMeA][Aze][NMeGly(cPent)][Sar][hPhe(3-Cl-4-CF3)]P[Ac5c][NMeI][NMeD]-{3Oxa8azabicyclo(3.2.1)octane}; lactam N-11) displayed an IC50 of 20 to 50 nM.
The result for `CC[C@H](C)[C@@H]1NC(=O)[C@H](C)N(C)C(=O)C[C@@H](C(=O)N2CCCCC2)N(C)C(=O)[C@H](C2CCCCC2)N(C)C(=O)C2(CCCC2)NC(=O)[C@@H]2CCCN2C(=O)[C@H](CCc2cc(Cl)c(Cl)c(OC(C)C)c2)NC(=O)CN(C)C(=O)[C@H](CC2CCCCC2)N(C)C(=O)CN(C)C(=O)CN(C)C1=O` [Compound 2062] ([NMeA]I[Sar][Sar][NMeCha][Sar][X60]P[Ac5c][NMeChg][NMeD]-Piperidide; lactam N-11; C-terminus assumed) reads more than 500 nM; that for `CC[C@H](C)[C@@H]1NC(=O)[C@H](CC(C)C)N(C)C(=O)C[C@@H](C)NC(=O)[C@H](C2CCCC2)N(C)C(=O)C2(CCCC2)NC(=O)[C@@H]2CCCN2C(=O)[C@H](CCc2ccc(C(F)(F)F)c(Cl)c2)NC(=O)[C@@H](C)N(C)C(=O)[C@H](Cc2ccc(C)cc2)N(C)C(=O)[C@@H]2CCN2C(=O)[C@H](C)N(C)C1=O` [Compound 1504] (cyclo([Ac5c][NMeGly(cPent)][d(β3hA)][NMeL]I[NMeA][Aze][NMePhe(4-Me)][dNMeA][hPhe(3-Cl-4-CF3)]P)), 100 to 500 nM.

As usually defined, the IC50 is the concentration that inhibits the measured activity by half. Low values mean greater potency in that assay, high ones weaker potency in that assay.
